Measured values reported in ChEMBL document CHEMBL1795238, “Structure-brain exposure relationships in rat and human using a novel data set of unbound drug concentrations in brain interstitial and cerebrospinal fluids” (J Med Chem, 2009).

What was measured:
[1] = tested on: Plasma; details: rat, iv, 4 h
[2] = tested on: Brain; details: rat, in vivo, iv, 4 h
[3] = in vivo; details: Sprague-Dawley, rat, iv, 2 (umol/kg)/hr
[4] = in vivo; details: Sprague-Dawley, rat, iv, 2 (umol/kg)/hr; remark: listed apart in the source
[5] = in vitro; details: Sprague-Dawley, rat, plasma, iv, 2 (umol/kg)/hr
[6] = clinical; details: human, CSF and plasma
[7] = in vivo; details: Sprague-Dawley, rat, iv, 2 (umol/kg)/hr; remark: listed apart in the source

Row | Structure (SMILES) | Cp(f) [1] [nM] | Vdu [2] [mL] | Kp at 4 h ([3]; brain) | Kp uu at 4 h ([4]; brain) | fraction unbound at 4 h [5] | Kp uu [6] | Kp uu at 4 h ([7]; csf) | Kp at 4 h ([3]; brain and plasma) | Kp uu at 4 h ([4]; brain and plasma) | Kp uu at 4 h ([7]; CSF and plasma)
1 | CC(C)(C)NC(=O)[C@@H]1C[C@@H]2CCCC[C@@H]2CN1C[C@@H](O)[C@H](Cc1ccccc1)NC(=O)[C@H](CC(N)=O)NC(=O)c1ccc2ccccc2n1 | 3 | 208 | 0.08 | 0.055 | 0.007 | 0.096 | – | – | – | –
2 | COc1ccc(CCN(C)CCCC(C#N)(c2ccc(OC)c(OC)c2)C(C)C)cc1OC (stereo not given) | 75 | – | – | – | – | – | – | – | – | –
3 | C=CCc1ccccc1OCC(O)CNC(C)C (stereo not given) [ALPRENOLOL] | 280 | 50 | 8.27 | 0.38 | 0.44 | – | 0.33 | – | – | –
4 | CN(C)CCC=C1c2ccccc2CCc2ccccc21 [AMITRIPTYLINE] | 22 | 310 | – | – | 0.09 | 0.18 | – | 20.1 | 0.73 | 0.17
5 | NCC(CC(=O)O)c1ccc(Cl)cc1 (stereo not given) [BACLOFEN] | 4200 | 1.7 | – | – | 1 | 0.17 | – | 0.03 | 0.02 | 0.027
6 | CC(NC(C)(C)C)C(=O)c1cccc(Cl)c1 (stereo not given) [BUPROPION] | 79 | 16 | – | – | 0.31 | 2 | – | 9.78 | 2 | 0.49
7 | COc1ccc2c3c1O[C@H]1[C@@H](O)C=C[C@H]4[C@@H](C2)N(C)CC[C@@]341 [CODEINE] | 210 | 3.2 | 2.7 | 0.89 | 0.95 | 0.79 | 0.54 | – | – | –
8 | CC(C)Nc1cccnc1N1CCN(C(=O)c2cc3cc(NS(C)(=O)=O)ccc3[nH]2)CC1 [DELAVIRDINE] | 17 | 40 | 0.03 | 0.043 | 0.016 | 0.23 | 0.051 | – | – | –
9 | NCC1(CC(=O)O)CCCCC1 [GABAPENTIN] | 5200 | 4.6 | – | – | 1 | 0.16 | – | 0.64 | 0.14 | 0.067
10 | COc1ccc2c(c1)c(CC(=O)O)c(C)n2C(=O)c1ccc(Cl)cc1 [INDOMETHACIN] | 200 | 14 | 0.01 | 0.11 | 0.01 | 0.27 | 0.17 | – | – | –
11 | C[C@H]1COc2c(N3CCN(C)CC3)c(F)cc3c(=O)c(C(=O)O)cn1c23.C[C@H]1COc2c(N3CCN(C)CC3)c(F)cc3c(=O)c(C(=O)O)cn1c23.O [LEVOFLOXACIN] | 590 | 1.7 | – | – | 0.82 | 0.18 | – | 0.17 | 0.12 | 0.19
12 | CN(C)C(=O)C(CCN1CCC(O)(c2ccc(Cl)cc2)CC1)(c1ccccc1)c1ccccc1 [LOPERAMIDE] | 54 | 370 | – | – | 0.06 | – | – | 0.15 | 0.007 | 0.037
13 | CN(Cc1cnc2nc(N)nc(N)c2n1)c1ccc(C(=O)N[C@@H](CCC(=O)O)C(=O)O)cc1 [METHOTREXATE] | 2900 | 0.68 | 0.004 | 0.006 | 1 | 0.062 | 0.007 | – | – | –
14 | COCCc1ccc(OCC(O)CNC(C)C)cc1 (stereo not given) [METOPROLOL] | 750 | – | – | – | 0.9 | – | – | – | – | –
15 | CN1CC[C@]23c4c5ccc(O[C@@H]6O[C@H](C(=O)O)[C@@H](O)[C@H](O)[C@H]6O)c4O[C@H]2[C@@H](O)C=C[C@H]3[C@H]1C5 [MORPHINE 3-GLUCURONIDE] | 2700 | 0.6 | – | – | 1 | 0.081 | – | 0.007 | 0.011 | 0.049
16 | CN1CC[C@]23c4c5ccc(O)c4O[C@H]2[C@@H](O[C@@H]2O[C@H](C(=O)O)[C@@H](O)[C@H](O)[C@H]2O)C=C[C@H]3[C@H]1C5 [MORPHINE GLUCURONIDE] | 2100 | 0.99 | – | – | 0.98 | 0.1 | – | 0.008 | 0.008 | 0.017
17 | CO[C@@]1(NC(=O)C(C(=O)O)c2ccc(O)cc2)C(=O)N2C(C(=O)O)=C(CSc3nnnn3C)CO[C@@H]21 (stereo not given in full) [MOXALACTAM] | 3800 | 0.57 | 0.003 | 0.019 | 0.32 | 0.41 | 0.02 | – | – | –
18 | CC(C)(C)NCC(O)COc1cccc2c1CC(O)C(O)C2 (stereo not given) [NADOLOL] | 780 | – | – | – | 0.86 | – | – | – | – | –
19 | O=C1CN(/N=C/c2ccc([N+](=O)[O-])o2)C(=O)N1 [NITROFURANTOIN] | 710 | 1.6 | 0.008 | 0.011 | 0.48 | – | 0.0099 | – | – | –
20 | CCn1cc(C(=O)O)c(=O)c2cc(F)c(N3CCNCC3)cc21 [NORFLOXACIN] | 700 | 2.9 | 0.07 | 0.028 | 0.87 | 0.11 | 0.018 | – | – | –
21 | C=CCOc1ccccc1OCC(O)CNC(C)C (stereo not given) [OXPRENOLOL] | 210 | 11.8 | 1.06 | 0.2 | 0.45 | – | 0.1 | – | – | –
22 | COc1ccc2c3c1O[C@H]1C(=O)CC[C@@]4(O)[C@@H](C2)N(C)CC[C@]314 [OXYCODONE] | 330 | – | – | – | 0.87 | – | – | – | – | –
23 | CN1CC[C@]23c4c5ccc(O)c4O[C@H]2C(=O)CC[C@@]3(O)[C@H]1C5 [OXYMORPHONE] | 240 | 4 | – | – | 0.73 | – | – | 2.29 | 0.79 | 0.91
24 | CCC(C(N)=O)(C(N)=O)c1ccccc1 [PHENYLETHYLMALONAMIDE] | 4300 | 0.9 | – | – | 0.55 | – | – | 0.64 | 1.25 | 1.4
25 | CC(C)NCC(O)COc1cccc2[nH]ccc12 (stereo not given) [PINDOLOL] | 160 | – | – | – | 0.43 | 0.52 | – | 1.56 | 0.5 | 0.11
26 | CO[C@H]1/C=C/O[C@@]2(C)Oc3c(C)c(O)c4c(O)c(c(/C=N/N5CCN(C)CC5)c(O)c4c3C2=O)NC(=O)/C(C)=C\C=C\[C@H](C)[C@H](O)[C@@H](C)[C@@H](O)[C@@H](C)[C@H](OC(C)=O)[C@@H]1C [RIFAMPIN] | 830 | – | – | – | 0.12 | – | – | – | – | –
27 | O=C(O)c1cc(/N=N/c2ccc(S(=O)(=O)Nc3ccccn3)cc2)ccc1O [SULFASALAZINE] | 13 | – | – | – | 0.005 | – | – | – | – | 0.032
28 | CCCC(C)C1(CC)C(=O)NC(=S)NC1=O (stereo not given) [THIOPENTAL] | 550 | – | – | – | 0.19 | – | – | – | – | –
29 | Cc1cn([C@H]2C[C@H](N=[N+]=[N-])[C@@H](CO)O2)c(=O)[nH]c1=O [ZIDOVUDINE] | 1200 | – | – | – | 0.64 | – | – | – | – | –
